Source: paper PMC10051656, “Phenylpyrazolone-1,2,3-triazole Hybrids as Potent Antiviral Agents with Promising SARS-CoV-2 Main Protease Inhibition Potential” (Pharmaceuticals, 2023)
Values joined by “and” are separate entries in the source; they are usually repeats but may differ in a detail not shown here. Equal entries are not always repeated. Where two headings read alike, the source gives them in different places.

How the values were obtained:
[1] = MTT cell viability / cytotoxicity in Vero E6 cells; parameters: cytotoxicity to Vero E6 cells: dose or concentration left out as unconfirmed; settings: African green monkey
SARS-CoV-2 = assay: microbe, parasite or virus in culture; assay type: cell-based; settings: for API Value: ratio of 10 μM inhibition % of tested drug to the reference remdesivir
SARS-CoV-2 Main protease = SARS-CoV-2 Main protease (Severe acute respiratory syndrome coronavirus 2, UniProt P0DTD1); assay: biochemical
Vero E6 cells = assay: MTT cell viability / cytotoxicity in Vero E6 cells; parameters: cytotoxicity to Vero E6 cells: dose or concentration left out as unconfirmed; settings: for IC50: read-out: Cytotoxicity (Vero E6) (IC50), Vero E6 cells, MTT test
SARS-CoV Main protease = settings: cited from earlier work
[2] = system: Main protease of MERS-CoV; settings: cited from earlier work
[3] = Cytotoxicity (Vero E6) (IC50, μM), Vero E6 cells, MTT test
[4] = Severe acute respiratory syndrome coronavirus 2, Vero C1008, 1 μM, infected Vero E6 cells, MOI 0.01, read-out: Anti-SARS-CoV-2 Effect Assay (%) 1 μM
[5] = Severe acute respiratory syndrome coronavirus 2, Vero C1008, 10 μM, infected Vero E6 cells, MOI 0.01, read-out: Anti-SARS-CoV-2 Effect Assay (%) 10 μM
[6] = triplicate readings with SE, read-out: IC50 (μM) ± SE

Row | SMILES | IC50 [1, 3] [µM] | inhibition at 1 µM (SARS-CoV-2; [4]) [%] | inhibition at 10 µM (SARS-CoV-2; [5]) [%] | API Value (SARS-CoV-2) | IC50 (SARS-CoV-2 Main protease; [6]) | other results
1 | CC1=NN(c2ccc(Cl)cc2)C(=O)/C1=C\c1ccc(OCc2cn(-c3ccc(C(=O)O)cc3)nn2)cc1 [6a] | 17.1 ± 13 | 10.8 ± 0.06 | 19.3 | 0.21 | 76 µM and 76.9 µM | Anti-SARS-CoV-2 Effect Assay (%) 10 μM (SARS-CoV-2; 10 μM, infected Vero E6 cells, MOI 0.01): 19.27 ± 0.51%
2 | CC1=NN(c2ccccc2)C(=O)/C1=C\c1ccc(OCc2cn(-c3ccc(C(=O)O)cc3)nn2)cc1 [6b] |  |  |  |  | > 200 µM | melting point: 205 to 206 °C
3 | CC(=O)c1ccc(-n2cc(COc3ccc(/C=C4\C(=O)N(c5ccc(Cl)cc5)N=C4C)cc3)nn2)cc1 [6c] | 92.1 ± 7 | 4.46 ± 0.034 | 24.5 ± 0.37 | 0.26 | 81.1 ± 3.9 µM | 
4 | CC1=NN(c2ccc(Cl)cc2)C(=O)/C1=C\c1ccc(OCc2cn(-c3ccc(F)cc3)nn2)cc1 [6d] | 172 ± 13 | 7.38 ± 0.007 | 55.47 ± 0.27 | 0.60 | 42.4 ± 3.8 µM | 
5 | CC1=NN(c2ccc(Cl)cc2)C(=O)/C1=C\c1ccc(OCc2cn(-c3ccc([N+](=O)[O-])cc3)nn2)cc1 [6e] | 66.4 ± 5.1 | 17.4 ± 0.19 | 49.5 ± 1.01 | 0.53 | 30.1 ± 1.4 µM | 
6 | CC1=NN(c2ccc(Cl)cc2)C(=O)/C1=C\c1ccc(OCc2cn(-c3ccc(Cl)cc3)nn2)cc1 [6f] | 51.4 ± 3.9 | 1.54 ± 0.089 | 30.2 ± 0.31 | 0.31 | 144 ± 6.9 µM | 
7 | CC1=NN(c2ccc(Cl)cc2)C(=O)/C1=C\c1ccc(OCc2cn(-c3ccc(Cl)c(Cl)c3)nn2)cc1 [6g] | 235 ± 18 | 12.23 ± 0.05 | 38.74 ± 0.3 | 0.41 | 200 ± 9.5 µM | 
8 | CC1=NN(c2ccc(Cl)cc2)C(=O)/C1=C\c1ccc(OCc2cn(-c3ccc(C)c(F)c3)nn2)cc1 [6h] | 33.7 ± 2.6 | 15.5 ± 0.003 | 64.2 | 0.66 | 5.08 ± 3.5 µM | 
9 | CC1=NN(c2ccc(Cl)cc2)C(=O)/C1=C\c1ccc(OCc2cn(CC(=O)Nc3ccc(C(=O)O)cc3)nn2)cc1 [6i] | 22.1 | 21.86 ± 0.09 | 64 | 0.67 | 3.17 µM and 7.55 µM and 3.1 µM and 3.16 µM | IC50 (Vero E6 cells): 21.1 ± 1.6 µM
10 | CC1=NN(c2ccc(Cl)cc2)C(=O)/C1=C\c1ccc(OCc2cn(CC(=O)Nc3ccc(F)cc3)nn2)cc1 [6j, (Z)-2-(4-((4-((1-(4-Chlorophenyl)-3-methyl-5-oxo-1H-pyrazol-4(5H)-ylidene)methyl)phenoxy)methyl)-1H-1,2,3-triazol-1-yl)-N-(4-fluorophenyl)acetamide] | 156 ± 12 | 16.16 ± 0.03 | 39.65 ± 0.25 | 0.46 | 49.4 ± 2.4 µM | 
11 | CC1=NN(c2ccccc2)C(=O)/C1=C\c1ccc(OCc2cn(CC(=O)Nc3ccc(F)cc3)nn2)cc1 [6k, (Z)-N-(4-Fluorophenyl)-2-(4-((4-((3-methyl-5-oxo-1-phenyl-1H-pyrazol-4(5H)-ylidene)methyl)phenoxy)methyl)-1H-1,2,3-triazol-1-yl)acetamide] |  |  |  |  | > 200 µM | melting point: 201 to 203 °C; IC50 (SARS-CoV-2 Main protease; unit inferred, read-out: IC50 (numbers printed in the chart of Figure 5)): 200 µM
12 | CC1=NN(c2ccc(Cl)cc2)C(=O)/C1=C\c1ccc(OCc2cn(CC(=O)Nc3ccc([N+](=O)[O-])cc3)nn2)cc1 [6l, (Z)-2-(4-((4-((1-(4-Chlorophenyl)-3-methyl-5-oxo-1H-pyrazol-4(5H)-ylidene)methyl)phenoxy)methyl)-1H-1,2,3-triazol-1-yl)-N-(4-nitrophenyl)acetamide] | 32.6 ± 2.5 | 8.84 ± 0.11 | 46.91 ± 0.28 |  | 135 ± 6.5 µM | 
13 | CC1=NN(c2ccc(Cl)cc2)C(=O)/C1=C\c1ccc(OCc2cn(CC(=O)Nc3ccc(C)c(F)c3)nn2)cc1 [6m, (Z)-2-(4-((4-((1-(4-Chlorophenyl)-3-methyl-5-oxo-1H-pyrazol-4(5H)-ylidene)methyl)phenoxy)methyl)-1H-1,2,3-triazol-1-yl)-N-(3-fluoro-4-methylphenyl)acetamide] | 189 ± 14 | 9.55 ± 0.02 | ~50 | 0.49 | 25.7 ± 0.4 µM | 
14 | CC1=NN(c2ccc(Cl)cc2)C(=O)/C1=C\c1ccc(OCc2cn(CC(=O)NCc3ccc(Cl)cc3)nn2)cc1 [6n, (Z)-N-(4-Chlorobenzyl)-2-(4-((4-((1-(4-chlorophenyl)-3-methyl-5-oxo-1H-pyrazol-4(5H)-ylidene)methyl)phenoxy)methyl)-1H-1,2,3-triazol-1-yl)acetamide] | 23.1 ± 1.8 | 3.73 ± 0.01 | 51.13 ± 0.14 | 0.55 | 86.6 ± 4.1 µM | 
15 | CC1=NN(c2ccc(Cl)cc2)C(=O)/C1=C\c1ccc(OCc2cn(CC(=O)NCc3ccc(C)cc3)nn2)cc1 [6o, (Z)-2-(4-((4-((1-(4-Chlorophenyl)-3-methyl-5-oxo-1H-pyrazol-4(5H)-ylidene)methyl)phenoxy)methyl)-1H-1,2,3-triazol-1-yl)-N-(4-methylbenzyl)acetamide] | 262 ± 20 | 12.23 ± 0.1 | 54.1 ± 0.61 | 0.56 | 43.3 ± 2.1 µM | 
16 | COc1ccc(CNC(=O)Cn2cc(COc3ccc(/C=C4\C(=O)N(c5ccc(Cl)cc5)N=C4C)cc3)nn2)cc1 [6p, (Z)-2-(4-((4-((1-(4-Chlorophenyl)-3-methyl-5-oxo-1H-pyrazol-4(5H)-ylidene)methyl)phenoxy)methyl)-1H-1,2,3-triazol-1-yl)-N-(4-methoxybenzyl)acetamide] | 20.1 ± 1.5 | 9.5 ± 0.11 | ~50 | 0.54 | 23.7 ± 1.1 µM | 
17 | CC1=NN(c2ccc(Cl)cc2)C(=O)/C1=C\c1ccc(OCc2cn(CC(=O)NCc3ccc(F)cc3)nn2)cc1 [6q, (Z)-2-(4-((4-((1-(4-Chlorophenyl)-3-methyl-5-oxo-1H-pyrazol-4(5H)-ylidene)methyl)phenoxy)methyl)-1H-1,2,3-triazol-1-yl)-N-(4-fluorobenzyl)acetamide] | > 20 | 12.9 ± 0.03 | 79 | 0.84 | 3.16 µM and 7.55 µM | IC50 (Vero E6 cells): 35.3 ± 2.7 µM
18 | CC(C)CC(NC(=O)OCc1ccccc1)C(=O)NC(CC1CCNC1=O)C(O)S(=O)(=O)O (centres unmarked) [GC-376, reference compound] | 41.2 ± 1.1 | 78.96 ± 0.67 | 92.9 ± 1.15 | 0.99 |  | 
19 | CCC(CC)COC(=O)[C@H](C)N[P@](=O)(OC[C@H]1O[C@@](C#N)(c2ccc3c(N)ncnn23)[C@H](O)[C@@H]1O)Oc1ccccc1 [REM, remdesivir, reference compound] |  |  |  | 1.0 |  | IC50 [1]: 61.8 ± 4.7 µM; cytotoxicity to Vero E6 cells (Vero E6 cells; positive control): no cytotoxicity; inhibition at 1 µM (SARS-CoV-2; Severe acute respiratory syndrome coronavirus 2, Vero C1008, read-out: Anti-SARS-CoV-2 Effect Assay (%) 1 μM): 89.6 ± 0.98%; inhibition at 10 µM (SARS-CoV-2; Severe acute respiratory syndrome coronavirus 2, Vero C1008, read-out: Anti-SARS-CoV-2 Effect Assay (%) 10 μM): 93.3 ± 1.17%
20 | N#Cc1ccc(N2N=C(c3ccccc3)/C(=C/c3ccc(C(=O)O)cc3)C2=O)cc1 [compound 7] |  |  |  |  |  | IC50 (SARS-CoV Main protease): 5.5 µM
21 | O=C(O)c1ccc(/C=C2\C(=O)N(c3ccc(F)cc3)N=C2c2ccccc2)cc1 [compound 8] |  |  |  |  |  | IC50 (SARS-CoV Main protease): 6.8 µM
22 | O=C(O)c1cccc(N2N=C(c3ccccc3)/C(=C/c3ccc(-c4ccccc4)o3)C2=O)c1 [compound 9] |  |  |  |  |  | IC50 [2]: 5.8 µM; IC50 (SARS-CoV Main protease): 6.4 µM
23 | CC(C)(C)c1ccc(N2N=C(c3ccccc3)/C(=C/c3ccc(-c4cc(Cl)ccc4C(=O)O)o3)C2=O)cc1 [compound 10] |  |  |  |  |  | IC50 [2]: 7.4 µM; IC50 (SARS-CoV Main protease): 5.8 µM
24 | Cc1cccc(C)c1OCC(=O)N[C@@H](Cc1ccccc1)[C@@H](O)C[C@H](Cc1ccccc1)NC(=O)[C@H](C(C)C)N1CCCNC1=O [lopinavir, reference compound] |  |  |  |  | 82.2 µM | 
